Read-outs that look alike come from different tables or passages of the source.
Experiments:
Assay in all cases: cell-based
[1] = target: T1, Kappa opioid receptor (KOR) (Homo sapiens, UniProt P41145)
[2] = target: T1, Kappa opioid receptor (KOR); remark: listed apart in the source
[3] = target: T1, Kappa opioid receptor (KOR); remark: listed apart in the source

T1 sequence (P41145 whole entry): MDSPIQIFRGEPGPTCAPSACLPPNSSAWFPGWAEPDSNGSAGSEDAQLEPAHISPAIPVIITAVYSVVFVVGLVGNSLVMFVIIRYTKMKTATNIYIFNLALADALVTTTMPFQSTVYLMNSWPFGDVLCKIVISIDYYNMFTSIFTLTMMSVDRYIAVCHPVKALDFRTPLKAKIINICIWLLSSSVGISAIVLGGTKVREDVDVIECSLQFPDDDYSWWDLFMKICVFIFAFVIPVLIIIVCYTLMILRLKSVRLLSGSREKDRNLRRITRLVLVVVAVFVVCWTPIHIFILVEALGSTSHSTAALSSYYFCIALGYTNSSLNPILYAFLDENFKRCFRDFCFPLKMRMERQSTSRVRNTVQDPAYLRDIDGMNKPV

## COC(=O)[C@@H]1C[C@@H](OC(C)=O)C(=O)[C@@H]2[C@@]3(C)C[C@@H](c4ccoc4)CC(=O)[C@@H]3CC[C@]21C [ALB-230935, 2-cpi-O6C-20-nor-SalA]
[1]; EC50 Potency Score
  EC50: 1 to 100 nM
[2]; EC50 Potency Score
  EC50: 1 to 100 nM

## O6C-20-nor-SalA Enantiomer A [ALB-230936]
[1]; read-out: EC50 Potency Score
  EC50: < 1 nM
[2]; read-out: EC50 Potency Score
  EC50: < 1 nM

## COC(=O)[C@@H]1C[C@H](OC(C)=O)C(=O)[C@@H]2[C@@]3(C)C[C@@H](c4ccoc4)CC(=O)[C@@H]3CC[C@]21C (racemic) [ALB-230937, O6C-20-nor-SalA racemic mixture]
[3]
  EC50: < 0.1 nM
[3]; read-out: inhibition of cAMP production
  inhibition at 0.0001 µM: 100%
[1]; EC50 Potency Score
  EC50: < 1 nM
[2]; EC50 Potency Score
  EC50: < 1 nM

## COCO[C@H]1C[C@@H](C(=O)OC)[C@]2(C)CC[C@H]3C(=O)C[C@H](c4ccoc4)C[C@@H]3[C@H]2C1=O [ALB-231273]
[1]; EC50 Potency Score
  EC50: < 1 nM
[1]; estimated EC50
  EC50: < 0.1 nM
[2]; EC50 Potency Score
  EC50: < 1 nM
[2]; estimated EC50
  EC50: < 0.1 nM

## O6C-20-nor-SalA Enantiomer B [ALB-230932]
[1]; read-out: EC50 Potency Score
  EC50: 1 to 100 nM
[2]; read-out: EC50 Potency Score
  EC50: 1 to 100 nM

## COC(=O)[C@@H]1C[C@H](OC(=O)/C=C/c2ccccc2)C(=O)[C@@H]2[C@H]3C[C@@H](c4ccoc4)CC(=O)[C@@H]3CC[C@]21C [ALB-231360]
[3]
  EC50: ~46000 nM
[1]; EC50 Potency Score
  EC50: 1000 to 10000 nM
[2]; EC50 Potency Score
  EC50: 1000 to 10000 nM

## COC(=O)[C@@H]1C[C@H](O)C(=O)[C@@H]2[C@H]3C[C@@H](c4ccoc4)CC(=O)[C@@H]3CC[C@]21C [ALB-231274, O6C-20-nor-SalB]
[1]; EC50 Potency Score
  EC50: 1000 to 10000 nM
[2]; EC50 Potency Score
  EC50: 100 to 1000 nM
